# Measured values from PMC8778187, “A New Oxygen Containing Pyclen-Type Ligand as a Manganese(II) Binder for MRI and ^52Mn PET Applications: Equilibrium, Kinetic, Relaxometric, Structural and Radiochemical Studies” (Molecules, 2022).
# Assays:
# Type in all cases: physicochemical
# [1] = Ligand protonation constants by pH-potentiometric titration; conditions: T = 25 °C, I = 0.15 M NaCl
# Description: The protonation constants of H2OPC2A have been determined by pH-potentiometry in 0.15 M NaCl ionic medium, and the constants determined are listed in Table 2, along with the corresponding values determined for structurally similar ligands used as comparative benchmarks (H23,9-PC2A, H23,6-PC2A, H21,4-DO2A, H21,7-DO2A, and H21,7-O2DO2A).
# (§1) Metal stock solutions were prepared from the highest analytical grade chemicals, and their concentrations were determined by complexometric titration with standardized Na2H2EDTA and eriochrome black T indicator in the presence of ascorbic acid, and potassium hydrogen tartrate for MnCl2, murexide indicator for CaCl2 and CuCl2, eriochrome black T for MgCl2 and xylenol orange in the presence of hexamethylenetetramine for the solution of ZnCl2. The concentration of the ligand stock solution was determined by pH-potentiometric titrations. The protonation constants of the ligand were determined by the pH potentiometric titrations with 0.15 M NaOH, using 0.0025 M ligand solutions. The ionic strength was set to 0.15 M by using NaCl. […]
# (§2) To avoid the effect of CO2, N2 gas was bubbled through the solutions during the titrations process. […] For the calibration of the pH meter, KH-phtalate (pH = 4.005) and borax (pH = 9.177) buffers were used, and the H^+ ion concentrations were calculated from the measured pH values by applying the method proposed by Irving et al.. […]
# [2] = Stability and protonation constants of Ca(II) complexes by pH-potentiometry; conditions: Ca^2+ complex; T = 25 °C, I = 0.15 M NaCl
# Description: (§3) The stability and protonation constants of the metal complexes formed with H2OPC2A were determined by pH-potentiometric titrations, but, for the Cu(II) complex, UV-Vis spectrophotometric measurements were also carried out to supplement the pH-potentiometric titration data (Figures S21 and S22, Supporting Information).
# as §1, §2
# [3] = Stability and protonation constants of Zn(II) complexes by pH-potentiometry; conditions: Zn^2+ complex; T = 25 °C, I = 0.15 M NaCl
# Description: as §3
# as §1, with “NaCl. The titrated samples (starting volume of 6 mL) were stirred mechanically, and thermostated at 25 °C by a circulating water bath (±0.1 °C).” for “NaCl.”
# To avoid the effect of CO2, N2 gas was bubbled through the solutions during the titrations process. […] For the calibration of the pH meter, KH-phtalate (pH = 4.005) and borax (pH = 9.177) buffers were used, and the H^+ ion concentrations were calculated from the measured pH values by applying the method proposed by Irving et al.. A solution of approximately 0.01 M HCl was titrated with a 0.15 M NaOH solution (0.15 or 1.00 M NaCl), and the differences between the measured and calculated pH values (for the points with pH < 2.4) were used to calculate the (H^+) from the pH values measured in the titration experiments. […] The stability constants of the metal complexes (except for Cu(II)) were determined using the direct pH-potentiometric method, by titrating samples with 1:1 metal-to-ligand ratios (the number of fitted data pairs were between 127–212), allowing 1 min for the sample equilibration to occur. […]
smiles,measurement,setting,value
"O=C(O)CN1CCOCCN(CC(=O)O)Cc2cccc(n2)C1 [H23,9-OPC2A, 6-Oxa-3,9,15-triazabicyclo(9.3.1)pentadeca-1(15),11,13-triene-3,9-diacetic acid]",log K3^H,[1],2.13(1)
same,Σlog Κ2^H,[1]; log K1^H + log K2^H,15.39
same,log KMnL,[2],8.27(1)
same,log KMnHL,[3],2.08(3)
same,log KMnL,[3],14.81(1)
same,log KMnLOH,[3],10.95(2)
